# Results: patent US20220334127A1, “IN VITRO METHOD FOR OBTAINING CLINICAL DATA IN PATIENTS SUFFERING FROM AN INFLAMMATORY DISEASE” (FUNDACIÓN PARA LA FORMACIÓN E INVESTIGACIÓN SANITARIAS DE …, priority 2019, published 2022)
# Tests used:
# monocytes = test: Mitochondrial ROS production (MitoSOX) in human monocytes; format: cell-based; settings: healthy donor monocytes, ATP 3 mM 30 min (FIG. 5f)
# P2X7 receptor = test: Electron microscopy of mitochondria after ATP; format: cell-based
# NLRP3 inflammasome = test: IL-1β release from BMDMs pre-treated, washed, LPS-primed and stimulated with nigericin; format: cell-based, mouse; settings: P2X7-receptor-deficient macrophages (FIG. 6c)
# Procedure: FIG. 6. P2X7 receptor stimulation induces an impairment of the NLRP3 inflammasome in monocytes. (a-b) Percentage of monocytes with ASC-specks (a) and release of […] from PBMCs (b) isolated from healthy donor blood samples treated with ATP (3 mM, 30 min; ATP-pre), then washed and primed with or without LPS (1 μg/ml, 2 h) and then treated for 20 min with ATP (3 mM; ATP-post) or nigericin (10 μM) as indicated. (c) IL-1β release from wild type or P2rx7^−/− BMDMs treated as in a, but with 4 h LPS priming and 30 min of ATP or nigericin. (d) IL-1β release from wild type or P2rx7^−/− BMDMs treated for 30 min with antimycin A (5 μM) or FCCP (1 μM) and then washed and primed with LPS (1 μg/ml, 4 h) and then stimulated with nigericin (10 μM, 30 min) as indicated. (e) Expression of Nrlp3 and Illb genes analyzed by quantitative PCR from wild type or P2rx7^−/− BMDMs treated with ATP (3 mM, 30 min; ATP-pre), then washed and primed with or without LPS (100 ng/ml, 4 h). (f) Kaplan-Meier representation of wild type (top) or P2rx7^−/− (bottom) mice survival after sham operation (dotted line), or CLP operation (continuous line); some mice groups were i.p. injected with ATP (0.5 mg/g) 30 min before operation (dashed lines). Wild type CLP n=10, CLP+ATP n=8, sham n=4, sham+ATP n=4; P2rx7^−/− CLP n=4, CLP+ATP n=6, sham n=3. (g) IL-1β from peritoneal lavage (left) or bacterial load in blood (right) from wild type sham, CLP or CLP+ATP mice after 24 h. Each dot represents a single independent experiment (c,d), a sample from an individual healthy donor (a,b,e) or a single mouse (g); average±standard error is represented in panels a-e,g; *p<0.05; **p<0.01; ns, no significant difference (p>0.05); Mann-Whitney test was used for a,b,d,e; Kruskal-Wallis test was used for c; Long-rank test for f.
# FIG. 7. Mitochondrial dysfunction mediates P2X7 receptor induced NLRP3 inflammasome impairment. (a) Mitochondrial membrane depolarization in BMDMs treated with ATP (3 mM, 30 min), then washed out and incubated for the indicated times in the absence or presence of LPS (1 μg/ml) as indicated. […] (e) Representative histogram plot of HIF-1α staining (left) or quantification of HIF-1α mean intensity fluorescence increase (ΔMFI, right) in monocytes isolated from healthy donor blood samples and treated or not with ATP (1 mM, 30 min) in the presence or absence of AZ11645373 (10 μM) or PDTC (10 μM), and then washed and cultured for 2 h; non-stained monocytes (light grey, left). […] (g) Expression of HIF1A gene analyzed by quantitative PCR from control surgery group and septic patients PBMCs; septic patients are separated into NLRP3 non-immunocompromised (grey bar) and immunocompromised (black bar). […]
smiles,measurement,setting,value
"Nc1ncnc2c1ncn2[C@@H]1O[C@H](COP(=O)(O)OP(=O)(O)OP(=O)(O)O)[C@@H](O)[C@H]1O [ATP, adenosine triphosphate]",mitochondrial ROS production,monocytes,an increase in mitochondrial ROS production
same,damage to the mitochondria (electron microscopy),P2X7 receptor,no damage to the mitochondria
same,mitochondrial swelling (electron microscopy),P2X7 receptor,a swelling of the mitochondria
same,NLRP3 inflammasome inhibition when ATP applied before LPS priming,NLRP3 inflammasome,did not present NLRP3 inflammasome inhibition
